Data reported in article PMC11356571, “The Comparative Metabolism of a Novel Hepatocellular Carcinoma Therapeutic Agent, 2,3-Diamino-N-(4-(benzo[d]thiazol-2-yl)phenyl)propanamide, in Human and Animal Hepatocytes” (Metabolites, 2024).

Tests used:
[1] = Metabolic stability in dog hepatocytes; assay type: in vitro ADME; conditions: cryopreserved hepatocytes
Method: Cryopreserved hepatocytes were carefully thawed in a 37 °C water bath for approximately 1 min, and transferred to a tube containing pre-warmed thawing medium. The supernatants were removed and the pellets were resuspended in KHB at a final cell density of 1 × 10^6 cells/mL, based on hemocytometer counting using trypan blue exclusion. A ETN101 solution was prepared by dissolving ETN101 in water at 4 mM and diluted by KHB at the concentration of 4 μM of ETN101. Sixty microliters each of hepatocyte suspensions and 4 μM of ETN101 were added in a 96-well plate and incubated for 0, 5, 15, 30, and 45 min at 37 °C in a CO2 incubator. All incubations were conducted in triplicates. Reactions were terminated by the addition of 120 μL of ice-cold acetonitrile and followed by vortex mixing. After centrifugation at 13,000 rpm for 8 min at 4 °C, 5 μL of internal standard (IS, camptothecin in acetonitrile at 780 ng/mL) was added to 60 μL of supernatant. A 2 μL aliquot was injected into the LC-MS/MS system. The reliability of the analysis was confirmed by incorporating three different levels of quality control samples at the beginning and end of each analytical batch. The disappearance rate (k) of ETN101 was calculated by determined peak area ratio of ETN101 to IS over incubation period. Subsequently, half-life (t1/2), intrinsic clearance (Clint), and intrinsic hepatic clearance (Clint,hep) of ETN101 in human and animal hepatocytes were calculated using the following equation [34]: t1/2(min)=ln2/−k(elimination slope) ClintμL/min/10^6 cells=ln2/t1/2×μL incubation/hepatocytes (10^6 cells) Clint,hepmL/min/kg=Clint/1000×A×10^6 cells/g liver×B g liver/kg body weight […]
For the metabolic stability assay, an LC-MS/MS system was employed, consisting of an Agilent 1260 series HPLC system (Agilent Technologies Inc., Santa Clara, CA, USA) coupled to an API 4000 mass spectrometer (AB SCIEX, Concord, Vaughan, ON, Canada) equipped with a turbo electrospray interface. […] ETN101 and IS were detected using multiple reaction monitoring (MRM) mode under positive electrospray ionization (ESI). […]

[2] = system: NAT1 in human liver cytosol; assay: Human liver cytosol incubation with NAT1 inhibitor caffeic acid; assay type: in vitro ADME; conditions: 30 min at 37 °C, M1 1 μM
Method: For the chemical inhibition assay, human liver cytosol was prepared in 0.05 M potassium phosphate buffer at a concentration of 1 mg/mL prior to use. A 1 μL of M1 (final concentration: 1 μM) solution was spiked in 223 μL of human liver cytosol preparations. One microliter each of caffeic acid and 1-aminobenzotriazole were added and incubated as NAT1 and NAT2 inhibitors, respectively. The final concentrations of the NAT inhibitors were 0, 100, and 1000 μM in each incubate. After 5 min of pre-warming of the incubates at 37 °C, the metabolic reaction was initiated by adding 25 μL of acetyl-CoA regenerating system to the incubates. The samples were incubated in triplicate for 0 min or 30 min at 37 °C. The reaction was stopped by adding 250 μL of ice-cold acetonitrile containing the IS (camptothecin, 500 ng/mL) and vortex-mixing. Following centrifugation at 13,000 rpm for 5 min at 4 °C, a 2 μL aliquot of the supernatant was injected into the LC-MS/MS system. The percentage of remaining M1 and the formation of M2 were evaluated to determine the involvement of the NAT isozyme in N-acetylation of M1.
For enzyme characterization, an Agilent 6460 triple quadrupole mass spectrometer coupled with a 1260 HPLC system (Agilent Technologies, Santa Clara, CA, USA) and a Kinetex Halo® C18 column (2.7 μm, 2.1 × 50 mm, Advanced Material Technology, Wilmington, DE, USA) were used for chromatographic separation. The mobile phases comprised 0.1% (v/v) formic acid in water (mobile phase A) and 0.1% formic acid (v/v) in acetonitrile (mobile phase B). The mobile phase flowed at a rate of 0.3 mL/min, and the gradient elution program proceeded as follows: starting with 10% B for 0.5 min, a linear increase to 90% B for 0.2 min, maintaining 90% B for 1.5 min, and then returning to initial conditions for 0.2 min. Subsequently, the column was reconditioned using 10% B for 2.6 min. The column and auto-sampler were maintained at 40 °C and 4 °C, respectively. ETN101, M1, and M2 were detected via MRM using ESI in the positive mode. […]

Row | half-life at 2 µM ([1]; 45 min incubation at 37 °C) [min] | hepatocyte CLint at 2 µM ([1]; 45 min incubation at 37 °C) [µL/min/1e6 cells] | CLint scaled at 2 µM ([1]; scaled from Clint) [mL/min/kg] | SMILES | Percentage remaining of M1 ([2]; caffeic acid 0 μM) [%] | Percentage remaining of M1 ([2]; caffeic acid 100 μM) [%] | Percentage remaining of M1 ([2]; caffeic acid 1000 μM) [%]
1 | 113 | 12.3 | 84.6 | NCC(N)C(=O)Nc1ccc(-c2nc3ccccc3s2)cc1 (stereo not drawn) [ETN101, 2,3-diamino-N-(4-(benzo[d]thiazol-2-yl)phenyl)propanamide] |  |  | 
2 |  |  |  | Nc1ccc(-c2nc3ccccc3s2)cc1 [M1, 2-(4-aminophenyl)benzothiazole] | 87.2 | 89.6 | 94.4
